Experimental data published in publication PMC11359702, “Synthesis and Biochemical Evaluation of Ethanoanthracenes and Related Compounds: Antiproliferative and Pro-Apoptotic Effects in Chronic Lymphocytic Leukemia (CLL)” (Pharmaceuticals, 2024).
pIC50: −log10 of the molar value. Where two headings read alike, the source gives them in different places.

Columns and labels:
Test in all cases: NCI-60 five-dose assay
Assay type in all cases: cell-based, human
786-0 = tested on: 786-0
Experimental: (§1) A number of our most promising compounds identified through preliminary cell viability testing (23c, 23d, 23f, 23h, 23l, 23m, 23n, 23o, 24f, 24l, 25n and 26n) were selected for NCI drug screening in the 60-cell-line panel. The panel includes nine subcategories based on cancer tissue types, which include leukemia, ovarian, central nervous system, breast, lung, prostate, skin, renal and colon cancer. The compounds were initially assessed in a one-dose assay at a fixed treatment concentration of 10 µM. The compounds selected for further investigation were progressed to a five-dose assay across the concentration ranges of 0.01, 0.1, 1, 10 and 100 µM [72]. The endpoints assessed in the screening protocol were GI50, TGI and LC50 [72].

HCT-2998 = tested on: HCT-2998
Experimental: as §1

HCT-116 = tested on: HCT-116
Experimental: as §1

MDA-MB-435 = tested on: MDA-MB-435
Experimental: as §1

HCT-15 = tested on: HCT-15
Experimental: as §1

SW-620 = tested on: SW-620
Experimental: as §1

HS 578T = tested on: HS 578T
Experimental: as §1

MALME-3M = tested on: MALME-3M
Experimental: as §1

MDA-MB-468 = tested on: MDA-MB-468
Experimental: as §1

HOP-92 = tested on: HOP-92
Experimental: as §1

UACC-257 = tested on: UACC-257
Experimental: as §1

SK-MEL-5 = tested on: SK-MEL-5
Experimental: as §1

TK-10 = tested on: TK-10
Experimental: as §1

KM12 = tested on: KM12
Experimental: as §1

NCI-H460 = tested on: NCI-H460
Experimental: as §1

HOP-62 = tested on: HOP-62
Experimental: as §1

SK-OV-3 = tested on: SK-OV-3
Experimental: as §1

NCI-H552 = tested on: NCI-H552
Experimental: as §1

NCI/ADR-RES = tested on: NCI/ADR-RES
Experimental: as §1

NCI-H226 = tested on: NCI-H226
Experimental: as §1

IGROV1 = tested on: IGROV1
Experimental: as §1

OVCAR-3 = tested on: OVCAR-3
Experimental: as §1

CAKI-1 = tested on: CAKI-1
Experimental: as §1

M14 = tested on: M14
Experimental: as §1

OVCAR-4 = tested on: OVCAR-4
Experimental: as §1

UACC-62 = tested on: UACC-62
Experimental: as §1

SNB-19 = tested on: SNB-19
Experimental: as §1

SF539 = tested on: SF539
Experimental: as §1

NCI-H23 = tested on: NCI-H23
Experimental: as §1

PC-3 = tested on: PC-3
Experimental: as §1

MDA-MB-231/ATCC = tested on: MDA-MB-231/ATCC
Experimental: as §1

SF-268 = tested on: SF-268
Experimental: as §1

A498 = tested on: A498
Experimental: as §1

SK-MEL-2 = tested on: SK-MEL-2
Experimental: as §1

ACHN = tested on: ACHN
Experimental: as §1

U251 = tested on: U251
Experimental: as §1

SN12C = tested on: SN12C
Experimental: as §1

A549/ATCC = tested on: A549/ATCC
Experimental: as §1

NCI-H332M = tested on: NCI-H332M
Experimental: as §1

SK-MEL-28 = tested on: SK-MEL-28
Experimental: as §1

RXF 393 = tested on: RXF 393
Experimental: as §1

LOX IMV1 = tested on: LOX IMV1
Experimental: as §1

OVCAR-8 = tested on: OVCAR-8
Experimental: as §1

DU-145 = tested on: DU-145
Experimental: as §1

UO-31 = tested on: UO-31
Experimental: as §1

EKVX = tested on: EKVX
Experimental: as §1

MCF-7 = tested on: MCF-7
Experimental: as §1

BT-549 = tested on: BT-549
Experimental: as §1

OVCAR-5 = tested on: OVCAR-5
Experimental: as §1

HT29 = details: for GI50: HT29
Experimental: as §1

O=C(C=CC12c3ccccc3C(c3ccccc31)C1C(=O)N(c3ccc(Cl)cc3)C(=O)C12)c1ccccn1 (stereo not shown) [Compound 25n, (E)-13-(4-Chlorophenyl)-9-(3-oxo-3-(pyridin-2-yl)prop-1-en-1-yl)-9,10-dihydro-9,10-[3,4]epipyrroloanthracene-12,14-dione]
GI50 (786-0; Homo sapiens): 216 nM | GI50 (HCT-2998; Homo sapiens): 335 nM | GI50 (HCT-116; Homo sapiens): 212 nM | GI50 (MDA-MB-435; Homo sapiens): 298 nM | GI50 (HCT-15; Homo sapiens): 213 nM | GI50 (SW-620; Homo sapiens): 299 nM | GI50 (HS 578T; Homo sapiens): 458 nM | GI50 (MALME-3M; Homo sapiens, Malme-3M): 316 nM | GI50 (MDA-MB-468; Homo sapiens): 627 nM | GI50 (HOP-92; Homo sapiens): 1190 nM | GI50 (UACC-257; Homo sapiens): 496 nM | GI50 (SK-MEL-5; Homo sapiens): 1080 nM | GI50 (TK-10; Homo sapiens): 1460 nM | GI50 (KM12; Homo sapiens): 344 nM | GI50 (NCI-H460; Homo sapiens): 241 nM | GI50 (HOP-62; Homo sapiens): 587 nM | GI50 (SK-OV-3; Homo sapiens): 3300 nM | GI50 (NCI-H552; Homo sapiens): 331 nM | GI50 (NCI/ADR-RES; Homo sapiens): 356 nM | GI50 (NCI-H226; Homo sapiens): 293 nM | GI50 (IGROV1; Homo sapiens, IGROV-1): 236 nM | GI50 (OVCAR-3; Homo sapiens): 222 nM | GI50 (CAKI-1; Homo sapiens): 1070 nM | GI50 (M14; Homo sapiens): 344 nM | GI50 (OVCAR-4; Homo sapiens): 764 nM | GI50 (UACC-62; Homo sapiens): 400 nM | GI50 (SNB-19; Homo sapiens): 425 nM | GI50 (SF539; Homo sapiens, SF-539): 316 nM | GI50 (NCI-H23; Homo sapiens): 446 nM | GI50 (PC-3; Homo sapiens): 436 nM | GI50 (MDA-MB-231/ATCC; Homo sapiens): 463 nM | GI50 (SF-268; Homo sapiens): 699 nM | GI50 (A498; Homo sapiens): 539 nM | GI50 (SK-MEL-2; Homo sapiens): 670 nM | GI50 (ACHN; Homo sapiens): 299 nM | GI50 (U251; Homo sapiens, U-251): 358 nM | GI50 (SN12C; Homo sapiens): 415 nM | GI50 (A549/ATCC; Homo sapiens): 390 nM | GI50 (NCI-H332M; Homo sapiens): 821 nM | GI50 (SK-MEL-28; Homo sapiens): 455 nM | GI50 (RXF 393; Homo sapiens): 222 nM | GI50 (LOX IMV1; Homo sapiens): 194 nM | GI50 (OVCAR-8; Homo sapiens): 409 nM | GI50 (DU-145; Homo sapiens): 410 nM | GI50 (UO-31; Homo sapiens): 208 nM | GI50 (EKVX; Homo sapiens): 491 nM | GI50 (MCF-7; Homo sapiens, MCF7): 326 nM | GI50 (BT-549; Homo sapiens): 295 nM | GI50 (OVCAR-5; Homo sapiens): 568 nM | GI50 (HT29; Homo sapiens, HT-29): 335 nM | pIC50 (HT29; chemoresistant HT-29 human colorectal adenocarcinoma cell line): 6.47

O=C(/C=C/C12c3ccccc3C(c3ccccc31)C1C(=O)NC(=O)C12)c1ccc(F)cc1 (racemic) [Compound 23h]
GI50 (786-0; Homo sapiens): 2440 nM | GI50 (HCT-2998; Homo sapiens): 1700 nM | GI50 (HCT-116; Homo sapiens): 537 nM | GI50 (MDA-MB-435; Homo sapiens): 1930 nM | GI50 (HCT-15; Homo sapiens): 1190 nM | GI50 (SW-620; Homo sapiens): 2270 nM | GI50 (HS 578T; Homo sapiens): 1820 nM | GI50 (MALME-3M; Homo sapiens, Malme-3M): 1600 nM | GI50 (MDA-MB-468; Homo sapiens): 1880 nM | GI50 (HOP-92; Homo sapiens): 1330 nM | GI50 (UACC-257; Homo sapiens): 2130 nM | GI50 (SK-MEL-5; Homo sapiens): 1950 nM | GI50 (TK-10; Homo sapiens): 3180 nM | GI50 (KM12; Homo sapiens): 2180 nM | GI50 (NCI-H460; Homo sapiens): 1640 nM | GI50 (HOP-62; Homo sapiens): 2450 nM | GI50 (SK-OV-3; Homo sapiens): 5280 nM | GI50 (NCI-H552; Homo sapiens): 1740 nM | GI50 (NCI/ADR-RES; Homo sapiens): 2160 nM | GI50 (NCI-H226; Homo sapiens): 2040 nM | GI50 (IGROV1; Homo sapiens, IGROV-1): 2100 nM | GI50 (OVCAR-3; Homo sapiens): 1440 nM | GI50 (CAKI-1; Homo sapiens): 1020 nM | GI50 (M14; Homo sapiens): 2140 nM | GI50 (OVCAR-4; Homo sapiens): 1960 nM | GI50 (UACC-62; Homo sapiens): 1660 nM | GI50 (SNB-19; Homo sapiens): 2680 nM | GI50 (SF539; Homo sapiens, SF-539): 1690 nM | GI50 (NCI-H23; Homo sapiens): 2610 nM | GI50 (PC-3; Homo sapiens): 1420 nM | GI50 (MDA-MB-231/ATCC; Homo sapiens): 1640 nM | GI50 (SF-268; Homo sapiens): 4560 nM | GI50 (A498; Homo sapiens): 1160 nM | GI50 (SK-MEL-2; Homo sapiens): 2480 nM | GI50 (ACHN; Homo sapiens): 1390 nM | GI50 (U251; Homo sapiens, U-251): 1840 nM | GI50 (SN12C; Homo sapiens): 2340 nM | GI50 (A549/ATCC; Homo sapiens): 2370 nM | GI50 (NCI-H332M; Homo sapiens): 2640 nM | GI50 (SK-MEL-28; Homo sapiens): 1980 nM | GI50 (RXF 393; Homo sapiens): 1270 nM | GI50 (LOX IMV1; Homo sapiens): 1650 nM | GI50 (OVCAR-8; Homo sapiens): 1430 nM | GI50 (DU-145; Homo sapiens): 1770 nM | GI50 (UO-31; Homo sapiens): 1120 nM | GI50 (EKVX; Homo sapiens): 1850 nM | GI50 (MCF-7; Homo sapiens, MCF7): 885 nM | GI50 (BT-549; Homo sapiens): 1370 nM | GI50 (OVCAR-5; Homo sapiens): 1600 nM | GI50 (HT29; Homo sapiens, HT-29): 1860 nM

O=C(/C=C/C12c3ccccc3C(c3ccccc31)C1C(=O)NC(=O)C12)c1ccc(Cl)cc1 (racemic) [Compound 23l, (E)-9-(3-(4-Chlorophenyl)-3-oxoprop-1-en-1-yl)-9,10-dihydro-9,10-[3,4]epipyrroloanthracene-12,14-dione]
GI50 (786-0): 1730 nM | GI50 (HCT-2998): 1690 nM | GI50 (HCT-116): 1230 nM | GI50 (MDA-MB-435): 1680 nM | GI50 (HCT-15): 1470 nM | GI50 (SW-620): 1890 nM | GI50 (HS 578T): 1940 nM | GI50 (MALME-3M; MALME-3M): 1510 nM | GI50 (MDA-MB-468): 1700 nM | GI50 (HOP-92): 1320 nM | GI50 (UACC-257): 1560 nM | GI50 (SK-MEL-5): 1700 nM | GI50 (TK-10): 1920 nM | GI50 (KM12): 2140 nM | GI50 (NCI-H460): 1800 nM | GI50 (HOP-62): 1690 nM | GI50 (SK-OV-3): 1850 nM | GI50 (NCI-H552): 1460 nM | GI50 (NCI/ADR-RES): 1770 nM | GI50 (NCI-H226): 1920 nM | GI50 (IGROV1): 1670 nM | GI50 (OVCAR-3): 1630 nM | GI50 (CAKI-1): 1240 nM | GI50 (M14): 1650 nM | GI50 (OVCAR-4): 1420 nM | GI50 (UACC-62): 1400 nM | GI50 (SNB-19): 1580 nM | GI50 (SF539): 1510 nM | GI50 (NCI-H23): 1780 nM | GI50 (PC-3): 1390 nM | GI50 (MDA-MB-231/ATCC): 1880 nM | GI50 (SF-268): 1990 nM | GI50 (A498): 1280 nM | GI50 (SK-MEL-2): 1810 nM | GI50 (ACHN): 1650 nM | GI50 (U251): 1520 nM | GI50 (SN12C): 1560 nM | GI50 (A549/ATCC): 2400 nM | GI50 (NCI-H332M): 1420 nM | GI50 (SK-MEL-28): 1800 nM | GI50 (RXF 393): 1200 nM | GI50 (LOX IMV1): 1600 nM | GI50 (OVCAR-8): 1130 nM | GI50 (DU-145): 1670 nM | GI50 (UO-31): 1280 nM | GI50 (EKVX): 1430 nM | GI50 (MCF-7): 1340 nM | GI50 (BT-549): 1340 nM | GI50 (OVCAR-5): 1580 nM | GI50 (HT29): 2270 nM
